# From US20030068615A1, “Polypeptides that bind HIV gp120 and related nucleic acids, antibodies, compositions, and methods of use” (priority 1999, published 2003)
# Several values for one entry are separate records, joined by “and”; a condition that tells them apart may be missing. Equal entries are not always repeated. Where two headings read alike, the source gives them in different places.
# Biological target: HIV-1LAI envelope gp120 (Human immunodeficiency virus type 1 group M subtype B, UniProt P03377)
# Assay type: binding
# Details: for Relative % of Control: CXCR4 (1-18) alanine variants, mean of two syntheses and binding experiments ± average deviation, wild-type = 100%; for number of radioactive decays (counts) counted: human CD4 21-mer scan, empty control 2075; for Counts per 20′ Average-background: CCR5 18-mer scan, radiolabeled HIV-1LAI gp120
# [1] = Panel B, 15-mers and 18-mers of CD4, empty control 575
# [2] = Panel E, 9-mers and 12-mers of CD4, empty control 571
# [3] = Panel A, 21-mers of CD4, empty control 515 and 617
# [4] = CXCR4 18-mer scan, background subtracted, empty control 0
# [5] = CXCR4 18-mer scan, empty control 412
# [6] = Panel C, 15-mers and 18-mers of CD4, empty control 556
# [7] = Panel D, 9-mers and 12-mers of CD4, empty control […]
sequence,measurement,setting,value
MEGASIYTSDNYTEEMGS,Relative % of Control,,6 ± 0.3%
VTQDPKLQMGKKLPLHLTLPQ [human CD4 266-286],number of radioactive decays (counts) counted,,2075 counts
QKEEVQLLVFGLTANSDT,COUNTS of radiolabeled gp120 retained,[1],3671 counts
KNLKIEDSDTYICEV,COUNTS of radiolabeled gp120 retained,[1],562 counts
IYDINYYTSEPCQKINVK [CCR5 segment 9-26],Counts per 20′ Average-background,background subtracted,228 counts per 20′
THLLQGQSLALTLES,COUNTS of radiolabeled gp120 retained,"Panel F, sequential alanine replacements of CD4 polypeptides, duplicate series, empty control 569",8158 counts and 4749 counts
IVYKKEGEQVEF,COUNTS of radiolabeled gp120 retained,[2],533 counts
QAERASSSKSWITFDLINKEV [human CD4 241-261],number of radioactive decays (counts) counted,,2588 counts
SIVYKKEGEQVEFSFPLAFTV,COUNTS of radiolabeled gp120 retained,[3],8165 counts
LLFVITLPFWAVDAVANW,radioactive counts recorded in twenty minutes,[4],63 counts
same,radioactive counts recorded in twenty minutes,[5],475 counts
QKASSIVYKKEGEQVEFS,COUNTS of radiolabeled gp120 retained,[6],602 counts
TDIYLLNLAISDLFFLLT [CCR5 segment 65-82],Counts per 20′ Average-background,background subtracted,38 counts per 20′
DQKEEVQLLVFGLTA,COUNTS of radiolabeled gp120 retained,[1],3905 counts
SKGHQKRKALKTTVILIL [CXCR4 segment 229-246],radioactive counts recorded in twenty minutes,[4],140 counts
same,radioactive counts recorded in twenty minutes,[5],552 counts
YAGSGNLTLALEAKTGKLHQE [human CD4 291-311],number of radioactive decays (counts) counted,,1830 counts
IIKNLKIEDSDT,COUNTS of radiolabeled gp120 retained,[7],511 counts
CQLLTGLYFIGFFSGIFF,Counts per 20′ Average-background,background subtracted,489 counts per 20′
STPVQPMALIVLGGVAGLLLF [human CD4 391-411],number of radioactive decays (counts) counted,,2527 counts
MEGISIYTSDAYTEEMGS,Relative % of Control,,38 ± 0.4%
NFPLIIKNL,COUNTS of radiolabeled gp120 retained,[7],561 counts
ANSDTHLLQGQSLTL,COUNTS of radiolabeled gp120 retained,[1],542 counts
EVQLLVFGL,COUNTS of radiolabeled gp120 retained,[7],2146 counts
FWAVDAVANWYFGNFLCK [CXCR4 segment 93-110],radioactive counts recorded in twenty minutes,[4],66 counts
same,radioactive counts recorded in twenty minutes,[5],478 counts
KASSIVYKKEGEQVEFSFPLA [human CD4 206-226],COUNTS of radiolabeled gp120 retained,[3],30873 counts
same,number of radioactive decays (counts) counted,,14347 counts
LLLTIPDFIFANVSEADD,radioactive counts recorded in twenty minutes,[4],1006 counts
same,radioactive counts recorded in twenty minutes,[5],1418 counts
NSDTHLLQGQSLTLTLES,COUNTS of radiolabeled gp120 retained,[1],1726 counts
LLVFGLTAN,COUNTS of radiolabeled gp120 retained,[7],576 counts
TANSDTHLLQGQSLTLTL,COUNTS of radiolabeled gp120 retained,[1],891 counts
YICEVEDQKEEVQLLVFG,COUNTS of radiolabeled gp120 retained,[1],4611 counts
GAQVEFSFPLAFTVE,COUNTS of radiolabeled gp120 retained,"Panel G, alanine replacements and serial truncations (Z) of CD4 polypeptides, empty control 580",18079 counts and 17733 counts
PFWAYAGIHEWVFGQVMC,radioactive counts recorded in twenty minutes,"STRL33 18-mer scan, background subtracted, first of two count columns",7262.5 counts
same,radioactive counts recorded in twenty minutes,"STRL33 18-mer scan, background subtracted, second of two count columns",7537.5 counts
EFKIDIVVLAFQKAS,COUNTS of radiolabeled gp120 retained,[6],1188 counts
KEGEQVEFS,COUNTS of radiolabeled gp120 retained,[2],595 counts
SDNYTEEMGSGDYDSMKE [CXCR4 segment 9-26],radioactive counts recorded in twenty minutes,[4],43 counts
same,radioactive counts recorded in twenty minutes,[5],455 counts
MEGISIYTSDNYTEEMGS,radioactive counts recorded in twenty minutes,[4],2591 counts
same,radioactive counts recorded in twenty minutes,[5],3003 counts
same,Relative % of Control,,100%
SSSKSWITFDLKNKEVSVKRV [human CD4 246-266],number of radioactive decays (counts) counted,,1761 counts
